In patent publication US4393228A, “Epoxysuccinic acid derivatives” (Taisho Pharmaceutical Co., Ltd., priority 1977, dated 1983):

Biological target: T1, papain (Carica papaya, UniProt P00784)
T1 construct: purchased Sigma Chem. Co
T1 sequence (P00784 134-345): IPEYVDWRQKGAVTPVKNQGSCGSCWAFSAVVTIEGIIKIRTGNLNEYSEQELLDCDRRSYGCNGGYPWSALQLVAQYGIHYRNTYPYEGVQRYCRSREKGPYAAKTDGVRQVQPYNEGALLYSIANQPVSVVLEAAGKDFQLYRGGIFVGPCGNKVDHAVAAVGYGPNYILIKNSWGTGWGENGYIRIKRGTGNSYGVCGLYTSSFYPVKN
Assay: Papain inhibitory activity (milk casein digestion)
Type: biochemical
Settings: papain 80 μg/ml 0.5 ml, cysteine, pH 6.8, 1% milk casein, 40° C., 10 minutes
Protocol: Papain inhibitory activity of the compounds of this invention was assayed as follows: To 0.5 ml of a solution of papain (80 μg/ml, Sigma Chem. Co., 2x cry.), were added 0.25 ml of 40 mM cysteine dissolved in 20 mM disodium ethylenediamine tetraacetic acid solution adjusted pH to 6.8 with sodium hydroxide and 0.25 ml of 33 mM phosphate buffer (pH 6.8) with or without inhibitor. After incubation at 40° C. for 15 minutes, the resulting mixture was added to 5 ml of 1% milk casein solution in the same buffer as described above, and further incubated at 40° C. for 10 minutes. Then the mixture was mixed with 5 ml of 0.44 M trichloroacetic acid solution and followed by filtration with a sheet of Toyo filter paper No. 4. The extinction of the filtrate was read at 280 nm. The percent inhibition was calculated from the formula, 100 x (B-A)/B; wherein B stands for the absorbance without inhibitor and A for the absorbance with inhibitor. The compound Nos. in Table 1 are as defined in Examples as described hereinafter.

Row | Compound | ID50 (amount of inhibitor for 50% inhibition)
1 | CCOC(=O)C1OC1C(=O)N[C@@H](Cc1ccccc1)C(=O)OCC (stereo partly drawn) [EP-150, N-(3-ethoxycarbonyloxirane-2-carbonyl)-L-phenylalanine ethyl ester] | 3.10 γ
2 | O=C(O)[C@@H]1O[C@H]1C(=O)OC1C2CC3CC(C2)CC1C3 (relative stereo) [EP-38, 2-adamantyl potassium epoxysuccinate] | 0.06 γ
3 | Cc1cccc(COC(=O)[C@@H]2O[C@H]2C(=O)OCc2cccc(C)c2Br)c1Br (relative stereo) [EP-97, di-2'-bromo-3'-methylbenzyl epoxysuccinate] | 3.20 γ
4 | O=C(O)[C@@H]1O[C@H]1C(=O)OCc1cccc2c(Br)cccc12 (relative stereo) [EP-86, 5'-bromo-1'-naphthylmethyl potassium epoxysuccinate] | 0.27 γ
5 | CCOC(=O)[C@H](CCCCNC(=O)OCc1ccccc1)NC(=O)C1OC1C(=O)[O-].[K+] (stereo partly drawn) [EP-195, N^α -(3-carboxyoxirane-2-carbonyl)-N^ε -carbobenzoxy-L-lysine ethyl ester potassium salt] | 0.43 γ
6 | O=C(O)[C@@H]1O[C@H]1C(=O)OCc1ccc2c(c1)OCO2 (relative stereo) [EP-104, methylene-3',4'-dioxybenzyl potassium epoxysuccinate] | 0.36 γ
7 | O=C(O)C1OC1C(=O)OC1CC2C=CC1C2 (stereo not shown) [EP-58, norbor-5-en-2-yl potassium epoxysuccinate] | 0.07 γ
8 | O=C(NCCCC[C@H](NC(=O)C1OC1C(=O)[O-])C(=O)OCc1ccccc1)OCc1ccccc1.[K+] (stereo partly drawn) [EP-197, N^α -(3-carboxyoxirane-2-carbonyl)-N^ε -carbobenzoxy-L-lysine benzyl ester potassium salt] | 0.98 γ
9 | Cc1cc(C)c(COC(=O)[C@@H]2O[C@H]2C(=O)O)c(C)c1 (relative stereo) [EP-96, 2',4',6'-trimethylbenzyl potassium epoxysuccinate] | 0.37 γ
10 | COC(=O)[C@H](CCCNC(=N)N[N+](=O)[O-])NC(=O)C1OC1C(=O)OCc1ccccc1 (stereo partly drawn) [EP-184, N^α -(3-benzyloxycarbonyloxirane-2-carbonyl)-N^G -nitro-L-arginine methyl ester] | 2.91 γ
11 | CCOC(=O)[C@@H](NC(=O)C1OC1C(=O)OC)[C@@H](C)O (stereo partly drawn) [EP-190, N-(3-methoxycarbonyloxirane-2-carbonyl)-L-threonine ethyl ester] | 17.13 γ
12 | O=C(O)C1OC1C(=O)OC1CC(Cl)CC(Cl)C1 (stereo not drawn) [EP-24, 3',5'-trans-dichlorocyclohexyl potassium epoxysuccinate] | 0.09 γ
13 | CCOC(=O)C1OC1C(=O)N[C@@H](CCCCNC(=O)OCc1ccc(OC)cc1)C(=O)OCc1ccccc1 (stereo partly drawn) [EP-169, N^α -(3-ethoxycarbonyloxirane-2-carbonyl)-N^ε -p-methoxybenzyloxycarbonyl-L-lysine benzyl ester] | 26.50 γ
14 | O=C(CNC(=O)C1OC1C(=O)OC1CCCC1Cl)OCc1ccccc1 (stereo not drawn) [EP-213, N-[3-(2'-cis-chlorocyclopentyloxy)-carbonyloxirane-2-carbonyl]-glycine benzyl ester] | 6.75 γ
15 | O=C(NCCCC[C@H](NC(=O)C1OC1C(=O)OC1CC1)C(=O)OCc1ccccc1)OCc1ccccc1 (stereo partly drawn) [EP-204, N^α -(3-cyclopropyloxycarbonyloxirane-2-carbonyl)-N^ε-carbobenzoxy-L-lysine benzyl ester] | 15.20 γ
16 | CCOC(=O)C1OC1C(=O)N[C@@H](CCC(=O)OCc1ccccc1)C(=O)OCc1ccccc1 (stereo partly drawn) [EP-156, N-(3-ethoxycarbonyloxirane-2-carbonyl)-L-glutamic acid dibenzyl ester] | 13.80 γ
17 | O=C(OC1CCC(Br)C(Cl)C1)C1OC1C(=O)OC1CCC(Br)C(Cl)C1 (stereo not drawn) [EP-21, di-3'-cis-chloro-trans-4'-bromocyclohexyl epoxysuccinate] | 2.46 γ
18 | O=C(O)C1OC1C(=O)OC1CCC(Br)C(Cl)C1 (stereo not drawn) [EP-22, 3'-cis-chloro-4'-trans-bromocyclohexyl potassium epoxysuccinate] | 0.12 γ
19 | CCOC(=O)[C@H](CC(C)C)NC(=O)C1OC1C(=O)OCCCC1CCCC1 (stereo partly drawn) [EP-203, N-[3-(3'-cyclopentylpropyloxy)carbonyloxirane-2-carbonyl]-L-leucine ethyl ester] | 0.12 γ
20 | O=C(OCc1ccc(Br)c(Cl)c1)[C@H]1O[C@@H]1C(=O)OCc1ccc(Br)c(Cl)c1 (relative stereo) [EP-125, di-3'-chloro-4'-bromobenzyl epoxysuccinate] | 2.90 γ

Row | Compound | ID50 (amount of inhibitor for 50% inhibition)
21 | O=C(N[C@@H](CSCc1ccccc1)C(=O)OCc1ccccc1)C1OC1C(=O)OCc1ccccc1 (stereo partly drawn) [EP-191, N-(3-benzyloxycarbonyloxirane-2-carbonyl)-S-benzyl-L-cysteine benzyl ester] | 5.51 γ
22 | O=C(O)[C@@H]1O[C@H]1C(=O)OCCC1CCCCC1 (relative stereo) [EP-62, 2-cyclohexaneethyl potassium epoxysuccinate] | 0.08 γ
23 | Cc1cc(C)c(COC(=O)[C@@H]2O[C@H]2C(=O)OCc2c(C)cc(C)cc2C)c(C)c1 (relative stereo) [EP-95, di-2',4',6'-trimethylbenzyl epoxysuccinate] | 4.20 γ
24 | O=C(OC1C2CC3CC(C2)CC1C3)[C@@H]1O[C@H]1C(=O)OC1C2CC3CC(C2)CC1C3 (relative stereo) [EP-37, di-2-adamantyl epoxysuccinate] | 0.22 γ
25 | O=C(OCc1cccc(Cl)c1)[C@@H]1O[C@H]1C(=O)OCc1cccc(Cl)c1 (relative stereo) [EP-109, di-m-chlorobenzyl epoxysuccinate] | 0.50 γ
26 | CC1CCCC(C)C1OC(=O)C1OC1C(=O)OC1C(C)CCCC1C (stereo not drawn) [EP-13, di-2',6'-trans-dimethylcyclohexyl epoxysuccinate] | 2.50 γ
27 | O=C(O)C1OC1C(=O)OC1CC2CCC1C2 (stereo not shown) [EP-56, norbornyl potassium epoxysuccinate] | 0.06 γ
28 | O=C(O)C1OC1C(=O)OC1CCC(Cl)C1 (stereo not drawn) [EP-30, 3'-cis-chlorocyclopentyl potassium epoxysuccinate] | 0.07 γ
29 | O=C(O)[C@H]1O[C@@H]1C(=O)OCCCc1ccccc1 (relative stereo) [EP-132, 3'-phenylpropyl potassium epoxysuccinate] | 0.17 γ
30 | CCCCCCCCCCCCOC(=O)[C@H]1O[C@@H]1C(=O)O (relative stereo) [EP-145, n-dodecyl potassium epoxysuccinate] | 0.14 γ
31 | O=C(O)C1OC1C(=O)N[C@@H](Cc1c[nH]c2ccccc12)C(=O)O (stereo partly drawn) [EP-177, N-(3-carboxyoxirane-2-carbonyl)-L-tryptophan] | 1.50 γ
32 | O=C(OCC1CCCCC1)[C@@H]1O[C@H]1C(=O)OCC1CCCCC1 (relative stereo) [EP-41, dicyclohexanemethyl epoxysuccinate] | 0.27 γ
33 | C[C@H]1CCCC[C@H]1OC(=O)[C@@H]1O[C@H]1C(=O)O[C@@H]1CCCC[C@@H]1C (relative stereo) [EP-3, di-2'-cis-methylcyclohexyl epoxysuccinate] | 2.12 γ
34 | CCOC(=O)[C@H]1O[C@@H]1C(=O)NCCC(=O)OCc1ccccc1 (relative stereo) [EP-157, N-(3-ethoxycarbonyloxirane-2-carbonyl)-β-alanine benzyl ester] | 71.50 γ
35 | Cc1cccc2c(COC(=O)[C@@H]3O[C@H]3C(=O)O)ccc(C)c12 (relative stereo) [EP-88, 4',5'-dimethyl-1'-naphthylmethyl potassium epoxysuccinate] | 0.32 γ
36 | C[C@H]1CC[C@@H](OC(=O)[C@@H]2O[C@H]2C(=O)O)CC1 (relative stereo) [EP-18, 4'-cis-methylcyclohexyl potassium epoxysuccinate] | 0.08 γ
37 | O=C(O)C1OC1C(=O)OCC1C=CCC1 (stereo not shown) [EP-72, 2-cyclopentenemethyl potassium epoxysuccinate] | 0.08 γ
38 | CCOC(=O)C1OC1C(=O)N1CCC[C@H]1C(=O)OCc1ccccc1 (stereo partly drawn) [EP-152, N-(3-ethoxycarbonyloxirane-2-carbonyl)-L-proline benzyl ester] | 48.20 γ
39 | O=C(OCC1CCCC1)[C@@H]1O[C@H]1C(=O)OCC1CCCC1 (relative stereo) [EP-43, dicyclopentanemethyl epoxysuccinate] | 0.45 γ
40 | O=C(O)[C@H]1O[C@@H]1C(=O)OCc1ccc(Br)cc1 (relative stereo) [EP-114, p-bromobenzyl potassium epoxysuccinate] | 0.26 γ
